Assay results from patent US20150291565A1, “INDOLE COMPOUNDS AND THEIR USE AS ANTIMICROBIALS” (Memorial Sloan-Kettering Cancer Center, priority 2012, published 2015).
In brackets after ≈: the same amount, converted by molar mass. Where two headings read alike, the source gives them in different places. Blank lines part the entries; values can stand above or below the compound they belong to.

Columns and labels:
[1] = system: E. faecium ATCC 700221 (VRE); experiment: Broth dilution MIC, E. faecium ATCC 700221; assay type: cell-based
[2] = system: K. pneumoniae ATCC 51503; experiment: Broth dilution MIC, K. pneumoniae ATCC 51503; assay type: cell-based; details: for MIC: Klebsiella pneumoniae
[3] = system: MRSA; experiment: Disk diffusion assay, zone of inhibition, MRSA; assay type: cell-based, Staphylococcus aureus; details: disk diffusion zone of inhibition
[4] = system: S. aureus ATCC 29213 (MSSA); experiment: Broth dilution MIC, S. aureus ATCC 29213; assay type: cell-based; details: for MIC: Staphylococcus aureus
[5] = system: S. pneumoniae ATCC 700674 (PRSP); experiment: Broth dilution MIC, S. pneumoniae ATCC 700674; assay type: cell-based; details: for MIC: Streptococcus pneumoniae
[6] = system: E. faecalis ATCC 29212 (VRE); experiment: Broth dilution MIC, E. faecalis ATCC 29212; assay type: cell-based
[7] = system: E. coli ATCC 25922; experiment: Broth dilution MIC, E. coli ATCC 25922; assay type: cell-based; details: for MIC: Escherichia coli
[8] = system: S. pneumoniae ATCC 6301 (PSSP); experiment: Broth dilution MIC, S. pneumoniae ATCC 6301; assay type: cell-based; details: for MIC: Streptococcus pneumoniae
[9] = system: C. albicans ATCC 14053; experiment: Broth dilution MIC, C. albicans ATCC 14053; assay type: cell-based; details: Candida albicans, ATCC14053; Table 1; range 64 down to 0.12 μg/ml
Description: In vitro Anti-bacterial & Anti-fungal Activity Assay: All test compounds were prepared as 6.4 mg/ml stock solutions in DMSO and further diluted according to the NCCLS M7-A6 (Page 5) document with sterile water or appropriate diluent. A working stock of 256 μg/ml was used to do 1:2 serial dilutions in 96-well plates. […] The inoculums were prepared by making a direct sterile water suspension of isolated colonies from 18 to 24 hr agar plates for all organisms (Mueller Hinton, Blood Agar or SDA plates). Each bacterial suspension was adjusted to read between 0.09 and 0.11 absorbance at 620 nm. […] These were further diluted 1/100 in appropriate broth for inoculating the 96-well plates. The C. albicans suspension was adjusted to read between 70 and 75% Transmittance at 530 nm and then diluted 1/500 in RPMI+MOPS broth. All aerobic bacterial and fungal plates were incubated for 18 hrs. at 35° C. […] Plates were read using a Beckman Automated Plate Reader at 650 nm. Readings were confirmed by visual examination of plates. (See Table 1, Table 2, Table 3, and Table 4). […] It is important to note that positive results against C. albicans are often indicative of broad spectrum antifungal activity, while negative results are not necessarily conclusory of a lack of activity against other fungus.

[10] = system: S. aureus ATCC 33591 (MRSA); experiment: Broth dilution MIC, S. aureus ATCC 33591; assay type: cell-based; details: for MIC: Staphylococcus aureus
[11] = system: S. aureus BAA-39 (MDR); experiment: Broth dilution MIC, S. aureus BAA-39; assay type: cell-based; details: for MIC: Staphylococcus aureus, BAA39
[12] = system: E. faecium CT-26; experiment: Broth dilution MIC, E. faecium CT-26; assay type: cell-based; details: for MIC: Enterococcus faecium
[13] = system: P. aeruginosa ATCC 9027; experiment: Broth dilution MIC, P. aeruginosa ATCC 9027; assay type: cell-based; details: for MIC: Pseudomonas aeruginosa
[14] = system: M. smegmatis (mc2155); experiment: Disk diffusion assay, zone of inhibition, M. smegmatis; assay type: cell-based; details: disk diffusion zone of inhibition
[15] = system: K. pneumoniae ATCC 13883; experiment: Broth dilution MIC, K. pneumoniae ATCC 13883; assay type: cell-based; details: for MIC: Klebsiella pneumoniae
[16] = system: E. coli ECM 1694; experiment: Broth dilution MIC, E. coli ECM 1694; assay type: cell-based; details: for MIC: Escherichia coli
[17] = Enterococcus faecium, Table 1, range 64 down to 0.12 μg/ml, read-out: MIC E. faecium ATCC 700221
[18] = Table 2, broth dilution MIC in ug/ml, read-out: MIC E faecium ATCC 700221 VRE
[19] = ATCC51503, Table 1, range 64 down to 0.12 μg/ml, read-out: MIC K. pneumoniae ATCC 51503
[20] = ATCC51503, Table 2, broth dilution MIC in ug/ml, read-out: MIC K pneumonia ATCC 51503
[21] = Table 1, range 64 down to 0.12 μg/ml, read-out: MIC S. aureus ATCC 29213
[22] = Table 2, broth dilution MIC in ug/ml, read-out: MIC S aureus ATCC 29213 MSSA
[23] = Table 1, range 64 down to 0.12 μg/ml, read-out: MIC S. pneumoniae ATCC 700674
[24] = Table 2, broth dilution MIC in ug/ml, read-out: MIC S pneumonia ATCC 700674 PRSP
[25] = Enterococcus faecalis, Table 1, range 64 down to 0.12 μg/ml, read-out: MIC E. faecalis ATCC 29212
[26] = Table 2, broth dilution MIC in ug/ml, read-out: MIC E faecalis ATCC 29212 VRE
[27] = ATCC 25921 / ATCC 25922, Table 2, broth dilution MIC in ug/ml, read-out: MIC E. coli ATCC 25921
[28] = ATCC25922, Table 1, range 64 down to 0.12 μg/ml, read-out: MIC E. coli ATCC 25922
[29] = ATCC6301, Table 1, range 64 down to 0.12 μg/ml, read-out: MIC S. pneumoniae ATCC 6301
[30] = ATCC6301, Table 2, broth dilution MIC in ug/ml, read-out: MIC S pneumonia ATCC 6301 PSSP
[31] = Table 1, range 64 down to 0.12 μg/ml, read-out: MIC S. aureus ATCC 33591
[32] = Table 2, broth dilution MIC in ug/ml, read-out: MIC S aureus ATCC 33591 MRSA
[33] = Table 1, range 64 down to 0.12 μg/ml, read-out: MIC S. aureus BAA-39
[34] = Table 2, broth dilution MIC in ug/ml, read-out: MIC S aureus BAA-39 MDR
[35] = CT26, Table 1, range 64 down to 0.12 μg/ml, read-out: MIC E. faecium CT-26
[36] = CT26, Table 2, broth dilution MIC in ug/ml, read-out: MIC E faecium CT-25
[37] = ATCC 9026 / ATCC 9027, Table 2, broth dilution MIC in ug/ml, read-out: MIC P aeruginosa ATCC 9026
[38] = ATCC9027, Table 1, range 64 down to 0.12 μg/ml, read-out: MIC P. aeruginosa ATCC 9027
[39] = ATCC13883, Table 1, range 64 down to 0.12 μg/ml, read-out: MIC K. pneumoniae ATCC 13883
[40] = ATCC13883, Table 2, broth dilution MIC in ug/ml, read-out: MIC K pneumonia ATCC 13883
[41] = ECM1694, Table 1, range 64 down to 0.12 μg/ml, read-out: MIC E. coli ECM 1694
[42] = ECM1694, Table 2, broth dilution MIC in ug/ml, read-out: MIC E. coli ECM 1693
[43] = Table 4, broth dilution MIC according to CLSI standards (NAEJA)

MIC [1, 17]: 4 µg/mL (≈ 10.9 µM)
MIC [1, 18]: 4 µg/mL (≈ 10.9 µM)
MIC [2, 19]: > 64 µg/mL
MIC [2, 20]: 64 µg/mL (≈ 174 µM)
MIC [4, 21]: 16 µg/mL (≈ 43.5 µM)
MIC [4, 22]: 16 µg/mL (≈ 43.5 µM)
MIC [5, 23]: 32 µg/mL (≈ 87.1 µM)
MIC [5, 24]: 32 µg/mL (≈ 87.1 µM)
MIC [6, 25]: 8 µg/mL (≈ 21.8 µM)
MIC [6, 26]: 8 µg/mL (≈ 21.8 µM)
MIC [7, 27]: 32 µg/mL (≈ 87.1 µM)
MIC [7, 28]: 32 µg/mL (≈ 87.1 µM)
MIC [8, 29]: 8 µg/mL (≈ 21.8 µM)
MIC [8, 30]: 8 µg/mL (≈ 21.8 µM)
MIC [9]: 64 µg/mL (≈ 174 µM)
MIC [10, 31]: 8 µg/mL (≈ 21.8 µM)
MIC [10, 32]: 8 µg/mL (≈ 21.8 µM)
MIC [11, 33]: 16 µg/mL (≈ 43.5 µM)
MIC [11, 34]: 16 µg/mL (≈ 43.5 µM)
MIC [12, 35]: 4 µg/mL (≈ 10.9 µM)
MIC [12, 36]: 4 µg/mL (≈ 10.9 µM)
MIC [13, 37]: 64 µg/mL (≈ 174 µM)
MIC [13, 38]: > 64 µg/mL
MIC [15, 39]: > 64 µg/mL
MIC [15, 40]: 64 µg/mL (≈ 174 µM)
MIC [16, 41]: 2 µg/mL (≈ 5.44 µM)
MIC [16, 42]: 2 µg/mL (≈ 5.44 µM)
SMILES: Nc1ccc(Nc2ccc(-c3cc4ccc(C5=NCCN5)cc4[nH]3)cc2)cc1 [SKI-8]
Zone Size MRSA [3]: 12 mm
Zone Size M. smegmatis [14]: 24 mm

MIC [1, 17]: 16 µg/mL (≈ 42.8 µM)
MIC [1, 18]: 16 µg/mL (≈ 42.8 µM)
MIC [2, 19]: > 64 µg/mL
MIC [2, 20]: 64 µg/mL (≈ 171 µM)
MIC [4, 21]: 2 µg/mL (≈ 5.35 µM)
MIC [4, 22]: 2 µg/mL (≈ 5.35 µM)
MIC [5, 23]: 32 µg/mL (≈ 85.7 µM)
MIC [5, 24]: 32 µg/mL (≈ 85.7 µM)
MIC [6, 25]: 16 µg/mL (≈ 42.8 µM)
MIC [6, 26]: 16 µg/mL (≈ 42.8 µM)
MIC [7, 27]: 2 µg/mL (≈ 5.35 µM)
MIC [7, 28]: 2 µg/mL (≈ 5.35 µM)
MIC [8, 29]: 4 µg/mL (≈ 10.7 µM)
MIC [8, 30]: 4 µg/mL (≈ 10.7 µM)
MIC [9]: 32 µg/mL (≈ 85.7 µM)
MIC [10, 31]: 2 µg/mL (≈ 5.35 µM)
MIC [10, 32]: 2 µg/mL (≈ 5.35 µM)
MIC [11, 33]: 2 µg/mL (≈ 5.35 µM)
MIC [11, 34]: 2 µg/mL (≈ 5.35 µM)
MIC [12, 35]: 16 µg/mL (≈ 42.8 µM)
MIC [12, 36]: 16 µg/mL (≈ 42.8 µM)
MIC [13, 37]: 64 µg/mL (≈ 171 µM)
MIC [13, 38]: > 64 µg/mL
MIC [15, 39]: > 64 µg/mL
MIC [15, 40]: 64 µg/mL (≈ 171 µM)
MIC [16, 41]: 0.25 µg/mL (≈ 0.669 µM)
MIC [16, 42]: 0.25 µg/mL (≈ 0.669 µM)
SMILES: CN1CCC(Nc2ccc(-c3cc4ccc(C5=NCCN5)cc4[nH]3)cc2)CC1 [SKI-7]
Zone Size MRSA [3]: 19 mm
Zone Size M. smegmatis [14]: 30 mm

MIC E. faecium ATCC 700221 ([1]; Table 3, starting at 4 μg/ml): >4 µg/mL
MIC VRE E. faecium ATCC 700221 [1, 43]: >4 µg/mL
MIC K. pneumoniae ATCC 51503 [2, 43]: 2 µg/mL (≈ 6.68 µM)
MIC S. aureus ATCC 29213 ([4]; Table 3, starting at 4 μg/ml): 0.016 µg/mL (≈ 0.0534 µM)
MIC MSSA S. aureus ATCC 29213 [4, 43]: 0.06 µg/mL (≈ 0.2 µM)
MIC S. pneumoniae ATCC 700674 ([5]; Table 3, starting at 4 μg/ml): 0.06 µg/mL (≈ 0.2 µM)
MIC PRSP S. pneumoniae ATCC 700674 [5, 43]: 0.5 µg/mL (≈ 1.67 µM)
MIC E. faecalis ATCC 29212 ([6]; Table 3, starting at 4 μg/ml): 1 µg/mL (≈ 3.34 µM)
MIC VRE E. faecalis ATCC 29212 [6, 43]: 4 µg/mL (≈ 13.4 µM)
MIC E. coli ATCC 25922 [7, 43]: 1 µg/mL (≈ 3.34 µM)
MIC S. pneumoniae ATCC 6301 ([8]; Table 3, starting at 4 μg/ml): ≦0.008 mcg/ml
MIC PSSP S. pneumoniae ATCC 6301 [8, 43]: 0.015 µg/mL (≈ 0.0501 µM)
MIC S. aureus ATCC 33591 ([10]; Table 3, starting at 4 μg/ml): >4 µg/mL
MIC MRSA S. aureus ATCC 33591 [10, 43]: >4 µg/mL
MIC S. aureus BAA-39 ([11]; Table 3, starting at 4 μg/ml): 1 µg/mL (≈ 3.34 µM)
MIC MDR S. aureus BAA-39 [11, 43]: 4 µg/mL (≈ 13.4 µM)
MIC E. faecium CT-26 ([12]; Table 3, starting at 4 μg/ml): >4 µg/mL
MIC E. faecium CT-26 [12, 43]: >4 µg/mL
MIC P. aeruginosa ATCC 9027 [13, 43]: 4 µg/mL (≈ 13.4 µM)
MIC K. pneumoniae ATCC 13883 [15, 43]: 2 µg/mL (≈ 6.68 µM)
MIC E. coli ECM 1694 ([16]; Table 3, starting at 4 μg/ml): 0.5 µg/mL (≈ 1.67 µM)
MIC E. coli ECM 1694 [16, 43]: 2 µg/mL (≈ 6.68 µM)
SMILES: C[C@@H](O)[C@H]1C(=O)N2C(C(=O)O)=C(SCCN=CN)C[C@H]12 [IMP, reference compound]

SMILES: Nc1ccc(-c2cc3ccc(C4=NCCN4)cc3[nH]2)cc1 [Compound 398657]
Zone Size MRSA [3]: 8.3 mm
Zone Size M. smegmatis [14]: 9.2 mm
